The CheMixHub viscosity set

Assay: xn = mol fraction of the nth substance listed

CC[N+](CC)(CC)CC.[Br-] + O
298.15 K, 101 kPa
Conditions | viscosity [mPa·s]
x1 = 0.0009 | 0.8894
x1 = 0.0089 | 1.059
x1 = 0.0177 | 1.314
x1 = 0.0348 | 2.397

CC(C)CCO + COCCO
303.15 K, 101.3 kPa
Conditions | viscosity [mPa·s]
x2 = 0.1536 | 2.477
x2 = 0.2181 | 2.305
x2 = 0.3068 | 2.095
x2 = 0.3756 | 1.955
x2 = 0.4802 | 1.772
x2 = 0.6881 | 1.512
x2 = 0.7438 | 1.47
x2 = 0.8293 | 1.413
x2 = 0.9356 | 1.38

CCOCCO + O=[N+]([O-])c1ccccc1
298.15 K, 101 kPa
Conditions | viscosity [mPa·s]
x2 = 0.0476 | 1.852
x2 = 0.1095 | 1.858
x2 = 0.2104 | 1.873
x2 = 0.3134 | 1.893
x2 = 0.4103 | 1.916
x2 = 0.4566 | 1.925
x2 = 0.5011 | 1.932
x2 = 0.5459 | 1.936
x2 = 0.6004 | 1.94
x2 = 0.7008 | 1.937
x2 = 0.8017 | 1.921
x2 = 0.8989 | 1.887
x2 = 0.9525 | 1.853

CCOCCO + CCCCCCCCC
viscosity [mPa·s], 101.33 kPa
Conditions | x1 = 0.098 | x1 = 0.2031 | x1 = 0.3023 | x1 = 0.4074 | x1 = 0.505 | x1 = 0.601 | x1 = 0.7022 | x1 = 0.8034 | x1 = 0.9003
298.15 K | 0.662 | 0.696 | 0.746 | 0.822 | 0.9 | 1.024 | 1.107 | 1.263 | 1.469
303.15 K | 0.62 | 0.646 | 0.69 | 0.753 | 0.821 | 0.929 | 1.005 | 1.137 | 1.316
308.15 K | 0.577 | 0.601 | 0.64 | 0.697 | 0.757 | 0.853 | 0.916 | 1.034 | 1.191
313.15 K | 0.537 | 0.558 | 0.596 | 0.642 | 0.698 | 0.778 | 0.837 | 0.939 | 1.075

CC(C)CCO + O
Conditions | viscosity [mPa·s]
293.15 K, 101.33 kPa, x1 = 0.0021 | 1.074
293.15 K, 101.33 kPa, x1 = 0.0042 | 1.123
293.15 K, 101.33 kPa, x1 = 0.0052 | 1.47
298.15 K, 101 kPa, x2 = 0.0019 | 3.738
298.15 K, 101 kPa, x2 = 0.0485 | 3.634
298.15 K, 101 kPa, x2 = 0.091 | 3.563
298.15 K, 101 kPa, x2 = 0.1325 | 3.518
298.15 K, 101 kPa, x2 = 0.1769 | 3.49
298.15 K, 101 kPa, x2 = 0.2065 | 3.482
298.15 K, 101 kPa, x2 = 0.2272 | 3.48
298.15 K, 101 kPa, x2 = 0.2538 | 3.486
298.15 K, 101 kPa, x2 = 0.3132 | 3.518
303.15 K, 101.33 kPa, x1 = 0.0021 | 0.851
303.15 K, 101.33 kPa, x1 = 0.0042 | 0.894
303.15 K, 101.33 kPa, x1 = 0.0052 | 0.907
313.15 K, 101.33 kPa, x1 = 0.0021 | 0.693
313.15 K, 101.33 kPa, x1 = 0.0042 | 0.721
323.15 K, 101.33 kPa, x1 = 0.0021 | 0.59
323.15 K, 101.33 kPa, x1 = 0.0042 | 0.617

CCOCCO + NC=O
101 kPa
Conditions | viscosity [mPa·s]
303 K, x2 = 0.1539 | 2.222
303 K, x2 = 0.3334 | 2.676
303 K, x2 = 0.4617 | 2.99
303 K, x2 = 0.5714 | 3.203
303 K, x2 = 0.6669 | 3.477
303 K, x2 = 0.7501 | 3.576
303 K, x2 = 0.8235 | 3.446
303 K, x2 = 0.8889 | 3.199
303 K, x2 = 0.9474 | 3.008
303.15 K, x2 = 0.8063 | 3.495
313 K, x2 = 0.1539 | 1.769
313 K, x2 = 0.3334 | 2.075
313 K, x2 = 0.4617 | 2.139
313 K, x2 = 0.5714 | 2.481
313 K, x2 = 0.6669 | 2.647
313 K, x2 = 0.7501 | 2.752
313 K, x2 = 0.8235 | 2.588
313 K, x2 = 0.8889 | 2.513
323.15 K, x2 = 0.2009 | 1.415

CC(C)CCO + CC(C)CO
viscosity [mPa·s], 101 kPa
Conditions | x1 = 0.2 | x1 = 0.4 | x1 = 0.6 | x1 = 0.8
293.15 K | 4.048 | 4.099 | 4.163 | 4.241
313.15 K | 2.178 | 2.22 | 2.27 | 2.326

CCC(=O)O.OCCNCCO + CCO
303.15 K, 101 kPa
Conditions | viscosity [mPa·s]
x1 = 0.5084 | 116.5
x1 = 0.6965 | 177.5
x1 = 0.804 | 226.5

CCOCCO + Cc1cccc(C)c1
viscosity [mPa·s], 101 kPa
Conditions | 298.15 K | 308.15 K
x1 = 0.0531 | 0.608 | 0.521
x1 = 0.1513 | 0.663 | 0.566
x1 = 0.2482 | 0.727 | 0.618
x1 = 0.3528 | 0.809 | 0.682
x1 = 0.4512 | 0.9 | 0.752
x1 = 0.5053 | 0.957 | 0.795
x1 = 0.5473 | 1.006 | 0.831
x1 = 0.6494 | 1.14 | 0.928
x1 = 0.751 | 1.3 | 1.04
x1 = 0.8492 | 1.487 | 1.168
x1 = 0.9554 | 1.731 | 1.33

NCC(=O)NCC(=O)NCC(=O)O + O
viscosity [mPa·s]
Conditions | 298.15 K | 303.15 K | 308.15 K | 313.15 K | 318.15 K
100 kPa, x1 = 0.0008998 | 0.9044 | 0.8108 | 0.7322 | 0.6656 | 0.6079
100 kPa, x1 = 0.001798 | 0.9128 | 0.8191 | 0.7406 | 0.6738 | 0.6157
100 kPa, x1 = 0.002695 | 0.9213 | 0.8272 | 0.7481 | 0.6812 | 0.6229
100 kPa, x1 = 0.00359 | 0.9287 | 0.8347 | 0.7552 | 0.6885 | 0.6298
100 kPa, x1 = 0.004483 | 0.9364 | 0.8418 | 0.7623 | 0.6953 | 0.6366
100 kPa, x1 = 0.005375 | 0.9426 | 0.8482 | 0.7691 | 0.7018 | 0.6429
100 kPa, x1 = 0.006266 | 0.95 | 0.8548 | 0.7757 | 0.7082 | 0.6492
100 kPa, x1 = 0.007154 | 0.9566 | 0.8615 | 0.7818 | 0.7147 | 0.6552
101 kPa, x1 = 0.000199 | 0.8947 | – | 0.7233 | – | 0.5994
101 kPa, x1 = 0.000396 | 0.8988 | – | 0.7269 | – | 0.6027
101 kPa, x1 = 0.0006084 | 0.9032 | – | 0.7307 | – | 0.6058
101 kPa, x1 = 0.0007854 | 0.9075 | – | 0.7343 | – | 0.6087
101 kPa, x1 = 0.001106 | 0.9149 | – | 0.7403 | – | 0.6138
101 kPa, x1 = 0.001839 | 0.9325 | – | 0.7547 | – | 0.6255
101 kPa, x1 = 0.002563 | 0.9511 | – | 0.7694 | – | 0.637
101 kPa, x1 = 0.003356 | 0.9729 | – | 0.7857 | – | 0.6495
101 kPa, x1 = 0.0046 | 1.01 | – | 0.8123 | – | 0.6694
